Values quoted from earlier work, collected in US8772346B2, “Pharmaceutical composition” (Torrent Pharmaceuticals Limited, priority 2005, dated 2014).
Read-outs that look alike come from different tables or passages of the source.

Details: HP-β-CD (10% w/v)

For `CCN(CC)C(=O)/C(C#N)=C/c1cc(O)c(O)c([N+](=O)[O-])c1` [entacapone], which “increase of aqueous solubility of entacapone by complexation with HP-β-CD” value (pH 3.0) is on record?
Its value is 12 fold.

And the “increase of aqueous solubility of entacapone by complexation with HP-β-CD” value (pH 5.0)?
The value was 85 fold.
